Measurements published in US10144746B2 (GLOBAL BLOOD THERAPEUTICS, INC., priority 2015, dated 2018).

Biological target: Human plasma kallikrein (Homo sapiens (Human), UniProt P03952)
Assay: In vitro plasma kallikrein inhibition assay (chromogenic substrate D-Pro-Phe-Arg-pNa, absorbance at 405 nm, IC50 determination)
Format: biochemical
Conditions: read-out: KLKB1 pIC50 (converted)

Chain of Human plasma kallikrein (P03952 391-638): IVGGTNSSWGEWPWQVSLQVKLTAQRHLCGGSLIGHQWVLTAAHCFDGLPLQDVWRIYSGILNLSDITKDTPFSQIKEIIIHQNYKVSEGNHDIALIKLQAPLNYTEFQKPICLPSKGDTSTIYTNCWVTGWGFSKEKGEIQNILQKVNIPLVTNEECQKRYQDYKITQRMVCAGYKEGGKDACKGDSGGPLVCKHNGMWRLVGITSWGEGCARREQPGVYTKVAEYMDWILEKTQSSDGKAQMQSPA
Chain of Human plasma kallikrein (P03952 20-390 partner): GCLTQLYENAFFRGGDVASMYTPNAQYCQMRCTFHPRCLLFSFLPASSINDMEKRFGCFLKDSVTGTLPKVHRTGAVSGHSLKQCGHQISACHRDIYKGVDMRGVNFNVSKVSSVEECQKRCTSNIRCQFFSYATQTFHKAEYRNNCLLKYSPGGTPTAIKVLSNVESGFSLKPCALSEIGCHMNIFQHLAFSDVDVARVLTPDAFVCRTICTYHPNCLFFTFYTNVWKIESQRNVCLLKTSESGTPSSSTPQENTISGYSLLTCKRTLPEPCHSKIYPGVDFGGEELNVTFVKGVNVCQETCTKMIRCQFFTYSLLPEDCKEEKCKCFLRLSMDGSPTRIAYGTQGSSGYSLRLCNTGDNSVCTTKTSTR

Row | IC50 [nM] | Compound
1 | 195 | Cc1cc(N)nc(C)c1CNC(=O)c1ccc2c(c1)[C@@H]1O[C@H]2c2cc(-c3ccccc3F)ccc21 (single isomer, unassigned) [Example 130]
2 | 17.4 | Cc1cc(N)nc(C)c1CNC(=O)c1ccc2c(c1)[C@@H]1O[C@H]2c2ccc(-c3ccc(Cl)c(F)c3F)cc21 (single isomer, unassigned) [Example 145]
3 | 46.8 | Cc1cc(N)nc(C)c1CNC(=O)c1ccc2c(c1)[C@@H]1O[C@H]2c2ccc(-c3ccc(Cl)cc3F)cc21 (single isomer, unassigned) [Example 174]
4 | 1 | Cc1cc(N)nc(C)c1CNC(=O)c1ccc2c(c1)[C@@H]1O[C@H]2c2ccc(Cn3cc(F)cn3)cc21 (single isomer, unassigned) [Example 178]
5 | 1 | Cc1cc(N)nc(C)c1CNC(=O)c1ccc2c(c1)[C@@H]1O[C@H]2c2ccc(Cn3cc(Cl)cn3)cc21 (single isomer, unassigned) [Example 179]
6 | 1820 | Cc1cc(N)nc(C)c1CNC(=O)c1ccc2c(c1)[C@@H]1O[C@H]2c2ccc(-n3c(=O)ccn3C)cc21 (single isomer, unassigned) [Example 186]
7 | 1.74 | N=C(N)c1ccc(CNC(=O)c2ccc3c(c2)[C@@H]2O[C@H]3c3ccc(-c4ccccc4F)cc32)cc1 (single isomer, unassigned) [Example 187]
8 | 105 | Cc1cc(N)nc(C)c1CNC(=O)c1ccc2c(c1)[C@@H]1O[C@H]2c2ccc(Oc3cccc(F)c3)cc21 (single isomer, unassigned) [Example 191]
9 | 1050 | Cc1cc(N)nc(C)c1CNC(=O)c1ccc2c(c1)[C@@H]1O[C@H]2c2ccc(-c3cccc[n+]3[O-])cc21 (single isomer, unassigned) [Example 195]
10 | 4680 | Cc1cc(N)nc(C)c1CNC(=O)c1ccc2c(c1)[C@@H]1O[C@H]2c2ccc(C(=O)N(C)c3ccc(F)cc3)cc21 (single isomer, unassigned) [Example 196]
11 | 0.741 | Cc1cc(C(=N)N)cc(C)c1CNC(=O)c1ccc2c(c1)[C@@H]1O[C@H]2c2ccc(-c3ccc(F)cc3F)cc21 (single isomer, unassigned) [Example 199]
12 | 83.2 | Cc1cc(N)nc(C)c1CNC(=O)c1ccc2c(c1)[C@@H]1O[C@H]2c2ccc(-c3ccc(F)c[n+]3[O-])cc21 (single isomer, unassigned) [Example 214]
13 | 15.8 | Cc1ccc(-c2ccc3c(c2)[C@H]2O[C@@H]3c3ccc(C(=O)NCc4cccc5c(N)nccc45)cc32)c(C#N)c1 (single isomer, unassigned) [Example 216]
14 | 2 | N=C(N)c1ccc(CNC(=O)c2ccc3c(c2)[C@@H]2O[C@H]3c3ccc(-c4ccc(Cl)s4)cc32)cc1 (single isomer, unassigned) [Example 217]
15 | 26.9 | Cc1cc(N)nc(C)c1CNC(=O)c1ccc2c(c1)[C@@H]1O[C@H]2c2ccc(N(C)c3cccc(F)c3)cc21 (single isomer, unassigned) [Example 218]
16 | 17 | C=Cc1cc(N)nc(C)c1CNC(=O)c1ccc2c(c1)[C@@H]1O[C@H]2c2ccc(-c3ccc(F)cc3F)cc21 (single isomer, unassigned) [Example 219]
17 | 36.3 | Nc1nccc2c(CNC(=O)c3ccc4c(c3)[C@@H]3O[C@H]4c4ccc(C(=O)c5ccccc5)cc43)cccc12 (single isomer, unassigned) [Example 226]
18 | 12 | C=C(C)c1cc(N)nc(C)c1CNC(=O)c1ccc2c(c1)[C@@H]1O[C@H]2c2ccc(-c3ccc(F)cc3F)cc21 (single isomer, unassigned) [Example 227]
19 | 10000 | Cc1cc(N)nc(C)c1CNC(=O)c1ccc2c(c1)[C@@H]1O[C@H]2c2ccc(NC(=O)c3ccccc3)cc21 (single isomer, unassigned) [Example 229]

Second part, the molecule before the results:

Row | Compound | IC50 [nM]
20 | Cc1cc(-c2ccc(F)cc2)cc2c1C1OC2c2cc(C(=O)NCc3ccc(C(=N)N)cc3)cc(F)c21 (racemic) [Example 396, (±)-N-[(4-carbamimidoylphenyl)methyl]-6-fluoro-12-(4-fluorophenyl)-10-methyl-15-oxatetracyclo[6.6.1.0^2,^7.0^9,1^4] pentadeca-2(7),3,5,9(14),10,12-hexaene-4-carboxamide] | 5.01
21 | Cc1cc(N)nc(C)c1CNC(=O)c1cc(F)c2c(c1)C1OC2c2c(C)cc(-c3ccc(F)cc3)cc21 (racemic) [Example 397, (±)-N-(6-amino-2,4-dimethylpyridin-3-yl) methyl]-6-fluoro-12-(4-fluorophenyl)-10-methyl-15-oxatetracyclo[6.6.1.0^2,^7.0^9,1^4] pentadeca-2(7),3,5,9(14),10,12-hexaene-4-carboxamide] | 20
22 | Cc1cc(N)nc(C)c1CNC(=O)c1cc(F)c2c(c1)C1OC2c2cc(-c3ccc(F)cc3)cc(C)c21 (racemic) [Example 398, N-[(6-amino-2,4-dimethyl-pyridin-3-yl)methyl]-6-fluoro-11-(4-fluorophenyl)-13-methyl-15-oxatetracyclo[6.6.1.0^2,^7.0^9,1^4] pentadeca-2,4,6,9(14),10,12-hexaene-4-carboxamide] | 398
23 | Cc1cc(N)nc(C)c1CNC(=O)c1ccc2c(c1)[C@@H]1O[C@H]2c2ccc(-c3ccc(F)c(F)c3F)cc21 (single isomer, unassigned) [Example 138] | 24
24 | Cc1cc(N)nc(C)c1CNC(=O)c1ccc2c(c1)[C@@H]1O[C@H]2c2ccc(-c3ccc(Cl)cc3C#N)cc21 (single isomer, unassigned) [Example 139] | 3.02
25 | Cc1ccc(-c2ccc3c(c2)[C@H]2O[C@@H]3c3ccc(C(=O)NCc4c(C)cc(N)nc4C)cc32)c(C#N)c1 (single isomer, unassigned) [Example 140] | 5.01
26 | Cc1cc(N)nc(C)c1CNC(=O)c1ccc2c(c1)[C@@H]1O[C@H]2c2ccc(-c3ccc(F)cc3Cl)cc21 (single isomer, unassigned) [Example 176] | 67.6
27 | COc1ccc(-c2ccc3c(c2)[C@H]2O[C@@H]3c3ccc(C(=O)NCc4c(C)cc(N)nc4C)cc32)c(F)n1 (single isomer, unassigned) [Example 177] | 117
28 | CCc1cc(N)nc(C)c1CNC(=O)c1ccc2c(c1)[C@@H]1O[C@H]2c2ccc(-c3ccc(F)cc3F)cc21 (single isomer, unassigned) [Example 183] | 12
29 | Cc1cc(N)nc(C)c1CNC(=O)c1ccc2c(c1)[C@@H]1O[C@H]2c2cc(Oc3cccc(F)c3)ccc21 (single isomer, unassigned) [Example 184] | 75.9
30 | Cc1cc(N)nc(C)c1CNC(=O)c1ccc2c(c1)[C@@H]1O[C@H]2c2ccc(Oc3ccn(C)n3)cc21 (single isomer, unassigned) [Example 185] | 2240
31 | Cc1nc(N)cc(Cl)c1CNC(=O)c1ccc2c(c1)[C@@H]1O[C@H]2c2ccc(-c3ccc(F)cc3F)cc21 (single isomer, unassigned) [Example 192] | 977
32 | Cc1cc(N)nc(C)c1CNC(=O)c1ccc2c(c1)[C@@H]1O[C@H]2c2ccc(C(=O)N3CC4CCC(C3)O4)cc21 (single isomer, unassigned) [Example 193] | 1580
33 | Cc1cc(N)nc(C)c1CNC(=O)c1ccc2c(c1)[C@@H]1O[C@H]2c2ccc(C(=O)N(C)c3ccccc3)cc21 (single isomer, unassigned) [Example 194] | 1660
34 | N=C(N)c1ccc(CNC(=O)c2ccc3c(c2)[C@@H]2O[C@H]3c3ccc(-c4ccc(F)cc4)cc32)cc1 (single isomer, unassigned) [Example 201] | 1
35 | Nc1noc2cc(CNC(=O)c3ccc4c(c3)[C@@H]3O[C@H]4c4ccc(-c5ccc(F)cc5F)cc43)ccc12 (single isomer, unassigned) [Example 205] | 1000
36 | N=C(N)c1ccc(CNC(=O)c2ccc3c(c2)[C@@H]2O[C@H]3c3ccc(Br)cc32)cc1 (single isomer, unassigned) [Example 206] | 37.2
37 | Nc1n[nH]c2cc(CNC(=O)c3ccc4c(c3)[C@@H]3O[C@H]4c4ccc(-c5ccc(F)cc5F)cc43)ccc12 (single isomer, unassigned) [Example 207] | 4900
38 | Cc1nc(N)cc(C(C)C)c1CNC(=O)c1ccc2c(c1)[C@@H]1O[C@H]2c2ccc(-c3ccc(F)cc3F)cc21 (single isomer, unassigned) [Example 208] | 1
39 | N=C(N)c1ccc(CNC(=O)c2ccc3c(c2)[C@@H]2O[C@H]3c3ccc(-c4ccc(F)cc4F)cc32)cc1F (single isomer, unassigned) [Example 211] | 11.7
40 | Cc1cc(N)nc(C)c1CNC(=O)c1ccc2c(c1)[C@@H]1O[C@H]2c2ccc(-c3cccnc3C)cc21 (single isomer, unassigned) [Example 212] | 70.8
41 | COc1ncccc1-c1ccc2c(c1)[C@H]1O[C@@H]2c2ccc(C(=O)NCc3c(C)cc(N)nc3C)cc21 (single isomer, unassigned) [Example 213] | 676
42 | Cc1ccncc1-c1ccc2c(c1)[C@H]1O[C@@H]2c2ccc(C(=O)NCc3c(C)cc(N)nc3C)cc21 (single isomer, unassigned) [Example 215] | 79.4
43 | Cc1cc(N)nc(C)c1CNC(=O)c1ccc2c(c1)[C@@H]1O[C@H]2c2ccc(C(=O)c3ccccc3)cc21 (single isomer, unassigned) [Example 220] | 12
44 | N=C(NC(=O)c1ccc2c(c1)[C@@H]1O[C@H]2c2ccc(-c3ccc(F)cc3F)cc21)c1ccc(N)cc1 (single isomer, unassigned) [Example 221] | 10000
45 | Cc1nc(N)cc(C2=CCOCC2)c1CNC(=O)c1ccc2c(c1)[C@@H]1O[C@H]2c2ccc(-c3ccc(F)cc3F)cc21 (single isomer, unassigned) [Example 222] | 28.2
46 | Cc1ccc(-c2ccc3c(c2)[C@H]2O[C@@H]3c3ccc(C(=O)NCc4ccc(C(=N)N)cc4)cc32)o1 (single isomer, unassigned) [Example 223] | 33.9
47 | Cc1cc(N)nc(C)c1CNC(=O)c1ccc2c(c1)[C@@H]1O[C@H]2c2ccc(Cn3ccccc3=O)cc21 (single isomer, unassigned) [Example 224] | 1
48 | Cc1cc(N)nc(C)c1CNC(=O)c1ccc2c(c1)[C@@H]1O[C@H]2c2ccc(C(=O)c3cccc(F)c3)cc21 (single isomer, unassigned) [Example 228] | 12
